Reference: patent US20190185544A1, “COMPOSITIONS AND METHODS OF MODULATING ABETA PROTEIN” (University of South Florida, priority 2016, published 2019)

What was measured:
N-terminus of APP = test: Co-immunoprecipitation and co-localisation with N-terminal APP in CHO/APPwt cells; assay type: binding, human; settings: peptides 10 μM or apoE 10 μg/mL, 2 h; IP with 6H3B5 or pN-APP
Procedure: Total secreted APP (t-sAPP) and full-length APP (f-APP) in total (inputs), immunoprecipitates and immunodepleted media and lysates were determined by WB using 22C11 or anti-C-terminal APP751/70 antibody (pC-APP), respectively (FIG. 20A left panels and FIG. 20B, top panels). Alternatively, conditioned media and cell lysates were IP with anti-N-terminal APP41/66 antibody (pN-APP) and apoE, or 6KApoEp and ApoEp, was determined using anti-human apoE antibody (ApoE1H4; FIG. 20A, right panels) or 6H3B5, respectively (FIG. 20B, bottom panels). In addition, CHO/APPwt cells were plated at 8 well-chambers at 1×10^5/well for 24 h, treated with 6K, ApoEp or 6KApoEp at 10 μM for 2 h, fixed in 4% paraformaldehyde and stained with 6H3B5 and pN-APP antibodies (FIG. 20C). Alexa Fluor 488 goat anti-mouse IgG (green) was used to detect ApoEp and 6KApoEp, while Alexa Fluor 594 donkey anti-rabbit IgG (red) was used to detect N-terminal APP. DAPI co-staining was done to show nuclear DNA. Homogenates prepared from three TgAPPwt mice (2 female/1 male), two AD patients (AD1[…], AD2[…]) and two normal age-matched control cortices (Ctrl1[…], Ctrl2[…]) were also IP with 6H3B5 or pN-APP and t-APP and apoE were determined using 6E10 and mApoE, respectively (FIGS. 20D-20E).
Total secreted APP in conditioned media and full length APP in cell lysates were then determined by WB using anti-N-terminal (22C11) and anti-C-terminal APP antibodies (pC-APP), respectively. […] In addition, ApoEp and 6KApoEp colocalized with N-terminal APP in cultured CHO/APPwt cells as determined by immunofluorescence staining with 6H3B5 and pN-APP antibodies (FIG. 20C), respectively, confirming that N-terminal APP physically associates with apoE in cell culture. […]
WB analyses were performed as previously described^43,44. […] For all other proteins detected by WB, 10% tris-SDS gels were used. Densitometry analysis was performed as previously described using a FluorS Multiimager with Quantity One™ software 43. […]

[1] = test system: N-terminal APP (sAPPα, sAPPβ, APP31/60); test: In vitro co-immunoprecipitation with recombinant sAPPα/β and APP31/60; assay type: binding, human; settings: sAPPα 100 nM, apoE4 100 nM, 6KApoEp or 6K at 5 or 10 μM, 1 h, 37° C.; P<0.05 at 10 μM
N-terminal APP (sAPPα, sAPPβ, APP31/60), sequence (P05067 18-189 limits assumed): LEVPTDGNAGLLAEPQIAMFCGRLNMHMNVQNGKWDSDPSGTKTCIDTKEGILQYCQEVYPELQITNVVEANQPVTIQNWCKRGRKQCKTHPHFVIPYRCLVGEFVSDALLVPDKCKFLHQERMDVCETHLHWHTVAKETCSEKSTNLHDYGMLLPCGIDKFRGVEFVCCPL

N-terminus of APP, sequence (P05067 18-189 limits assumed): as above

Substance: 6K: 6 lysines control peptide (KKKKKK) [reference compound]
- immunoprecipitation and localization with N-terminal APP (N-terminus of APP): but not 6K, immunoprecipitated and localized with N-terminal APP
- co-immunoprecipitation of sAPPα with apoE4 (apoE4/sAPPα band density ratio) [1]: but not 6K, reduced co-immunoprecipitation of sAPPα with apoE4
